Experimental data: ChEMBL document CHEMBL1770057, “Synthesis and antibacterial activity of alaremycin derivatives for the porphobilinogen synthase” (Bioorg Med Chem Lett, 2011)
pIC50: −log10 of the molar value.

Test system: not listed separately
Test: Inhibition of Pseudomonas fluorescens porphobilinogen synthase by PBGS assay

Structure (SMILES) | pIC50
CC(=O)N[C@@H](C)C(=O)CCC(=O)O | 2.96
C[C@@H](NC(=O)C(F)(F)F)C(=O)CCC(=O)O | 2.39
O=C(O)CCC(=O)CNC(=O)CCC(F)(F)F | 2.89
C=C(NC(C)=O)C(=O)CCC(=O)O [ALAREMYCIN] | 2.59
O=C(O)CCC(=O)CNC(=O)C(F)(F)F | 2.10
CC(=O)NCC(=O)CCC(=O)O | 2.60
C[C@H](NC(=O)C(F)(F)F)C(=O)CCC(=O)O | 2.52

The next compounds have a higher pIC50 than those just listed; values first:

pIC50 | Structure (SMILES)
3.05 | C=C(NC(=O)CC(F)(F)F)C(=O)CCC(=O)O
3.15 | CC(=O)N[C@H](C)C(=O)CCC(=O)O [ALAREMYCIN 2]
3.30 | O=C(O)CCC(=O)CNC(=O)CC(F)(F)F
4.29 | C=C(NC(=O)CCC(F)(F)F)C(=O)CCC(=O)O
4.66 | C=C(NC(=O)C(F)(F)F)C(=O)CCC(=O)O

Test system: Pseudomonas fluorescens
Test: Ratio of IC50 of Alaremycin to IC50 of compound for Pseudomonas fluorescens porphobilinogen synthase

Ratio IC50 | Structure (SMILES)
50 | C=C(NC(=O)CCC(F)(F)F)C(=O)CCC(=O)O
100 | C=C(NC(=O)C(F)(F)F)C(=O)CCC(=O)O
